# Measured values taken from US20130324603A1, “PHARMACEUTICAL COMPOSITION FOR TREATING INFLAMMATION AND PAIN” (priority 2012, published 2013).
# Tested on: arachidonic acid-induced ear swelling
# Test: topical arachidonic acid-induced ear swelling model in mice
# Type: in vivo
# Settings: for % Inhibition of ear swelling: measured at 90 minutes, male ICR mice; for inhibition in the ear swelling induced by arachidonic acid relative to vehicle-treated group (in words): statistically significant, p<0.05
# Description: The active compounds (methanesulfonylalkylnitriles, n=1-6), indomethacin (positive control), and vehicle were evaluated for anti-inflammatory activity in a topical arachidonic acid-induced ear swelling model in mice.
# Methanesulfonylacetonitrile (n=1) was purchased from Aldrich. Methanesulfonylalkylnitriles, n=2-5 were prepared by a method modified from Hsi et al. (Scientia Sinica 1974, 17, 743-751) with 30% hydrogen peroxide as the oxidizing agent. 7-methanesulfonylheptanenitrile (n=6) was prepared according to Example 1. Each active compound and the positive control were dissolved in vehicle (ethanol/acetone 1:1).
# Male ICR mice weighing 22±2 g were used and randomly divided; each group had 10 mice. Arachidonic Acid (0.5 mg in 20 μl of acetone:ethanol/1:1) was applied topically to the anterior and posterior surfaces of the right ear of each mice. Test substances and vehicle, as listed in Table 3 were similarly topically applied 30 min before and 15 min after arachidonic acid application. The thickness of the right ear and the left ear was measured and the difference calculated as an indication of the inflammation in the right ear. Ear swelling was measured by a Dyer model micrometer gauge at 60 and 90 minutes after arachidonic acid application as an index of inflammation. Percent inhibition was calculated according to the formula: Ic−It/Ic×100, where Ic and It refers to increase of ear thickness (mm) in control and treated mice, respectively. ANOVA and Dunnett's test were employed to ascertain significant difference between vehicle control and treated groups. Significance is set at P<0.05 level.
# [1] = 375 mM in acetone:ethanol (1:1), 20 μL, 30 min before and 15 min after arachidonic acid
Compound,% Inhibition of ear swelling [1] [%],inhibition in the ear swelling induced by arachidonic acid relative to vehicle-treated group (in words),"% Inhibition of ear swelling (positive control, 14 mM (0.5% w/v), 0.1 mg/20 μL) [%]"
CS(=O)(=O)CCC#N [3-methanesulfonylpropionitrile],36,significant inhibition,–
CS(=O)(=O)CCCC#N [4-methanesulfonylbutyronitrile],15,–,–
CS(=O)(=O)CCCCC#N [5-methanesulfonylpentanenitrile],24,significant inhibition,–
CS(=O)(=O)CCCCCC#N [6-methanesulfonylhexanenitrile],8,–,–
CS(=O)(=O)CCCCCCC#N [7-methanesulfonylheptanenitrile],46,significant inhibition,–
"COc1ccc2c(c1)c(CC(=O)O)c(C)n2C(=O)c1ccc(Cl)cc1 [Indomethacin, reference compound]",–,–,53
"CS(=O)(=O)CC#N [Methanesulfonylacetonitrile, methanesulfonylacetonitrile]",22,significant inhibition,–
